Laboratory results reported in ChEMBL document CHEMBL3137440, “DNDi T. cruzi fenarimol series dataset from which preclinical candidate EPL-BS0967 was identified (see also related datasets: CHEMBL3137386 and CHEMBL2448688)”.
In brackets after ≈: the same amount, converted by molar mass.

Key:
Trypanosoma cruzi [1] = assay: (§1) DNDI: Chagas in Vitro; format: functional, Tulahuen C4 (LacZ)
[2] = DNDI: Cytotoxicity against L-6 rat myoblasts from skeletal musclE; conditions: L6 rat skeletal muscle myoblasts, IC50
[3] = DNDI: Lipophilicity (gLogD) at pH 3; conditions: buffer
[4] = DNDI: Lipophilicity (gLogD) at pH 7.4; conditions: buffer
[5] = DNDI: Solubility in 0.01M HCl at pH 2 determined by nephelometry
[6] = DNDI: Solubility in phosphate buffer at pH 6.5 determined by nephelometry
in vitro [7] = conditions: human, microsomes
in vitro [8] = conditions: human, microsomes; remark: listed apart in the source
Trypanosoma cruzi [9] = assay: as §1; format: functional, organism-based, Tulahuen C4 (LacZ)
Cytochrome P450 3A4 = Cytochrome P450 3A4 (Homo sapiens, UniProt P08684)
Sequence of Cytochrome P450 3A4 (P08684 whole entry): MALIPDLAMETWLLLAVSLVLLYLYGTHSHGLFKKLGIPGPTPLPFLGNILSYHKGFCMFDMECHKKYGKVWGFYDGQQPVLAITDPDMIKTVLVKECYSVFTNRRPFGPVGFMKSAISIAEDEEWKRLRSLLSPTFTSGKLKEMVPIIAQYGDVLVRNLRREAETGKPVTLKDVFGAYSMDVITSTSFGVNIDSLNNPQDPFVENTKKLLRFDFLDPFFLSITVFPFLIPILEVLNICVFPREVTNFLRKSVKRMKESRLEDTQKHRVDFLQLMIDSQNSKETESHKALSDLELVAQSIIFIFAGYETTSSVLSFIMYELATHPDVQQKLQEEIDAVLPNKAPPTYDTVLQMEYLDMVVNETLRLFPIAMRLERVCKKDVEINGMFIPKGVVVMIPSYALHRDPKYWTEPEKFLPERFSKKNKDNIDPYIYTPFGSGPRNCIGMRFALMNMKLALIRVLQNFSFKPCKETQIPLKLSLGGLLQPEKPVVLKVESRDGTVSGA

in vitro [10] = conditions: human, microsomes; remark: listed apart in the source
[11] = Trypanosoma cruzi, Tulahuen C4 (LacZ)

Row | Compound | IC90 (Trypanosoma cruzi [1]; [11]) [nM] | IC50 [2] [nM] | chromatographic logD ([3]; pH 3) | chromatographic logD ([4]; pH 7.4) | solubility kinetic [5] [µg/mL] | solubility kinetic [6] [µg/mL] | half-life (in vitro [7]) [min] | microsomal CLint (in vitro [8]) [µL/min/mg] | IC50 (Trypanosoma cruzi [9]; [11]) [nM] | IC50 (Trypanosoma cruzi [9]) [nM] | IC90 (Trypanosoma cruzi [1]) [nM] | IC50 (Cytochrome P450 3A4) [nM] | hepatic extraction ratio (in vitro [10]) | chromatographic logD ([3]; pH 3, logD) | chromatographic logD ([4]; pH 7.4, logD) | half-life (in vitro [7]; t (1 / 2)) [min] | hepatic extraction ratio (in vitro [10]; EH) | microsomal CLint (in vitro [8]; CLint) [µL/min/mg]
1 | FC(F)(F)c1ccc(N(c2cccnc2)C2CCN(c3nccs3)CC2)cc1 | 31 | 41500 | 3.1 | 4.3 | > 100 | 1.6 (≈ 3.96 µM) | 10.8 | 161 |  |  |  |  |  |  |  |  |  | 
2 | FC(F)(F)c1ccc(N(c2cccnc2)C2CCN(c3cccc(C(F)(F)F)c3)CC2)cc1 | 312 | > 100000 |  |  |  |  |  |  | 210 |  |  |  |  |  |  |  |  | 
3 | FC(F)(F)c1ccc(N(c2cccnc2)C2CCN(c3ccc(C(F)(F)F)cn3)CC2)cc1 |  |  |  |  |  |  |  |  |  | 19.7 | > 100 |  |  |  |  |  |  | 
4 | Fc1cnc(N2CCC(N(c3ccc(C(F)(F)F)cc3)c3cccnc3)CC2)nc1 | 28 | 53100 | 4.2 | 4.9 | > 100 | < 1.6 | 49 | 36 | 22 |  |  |  |  |  |  |  |  | 
5 | FC(F)(F)c1ccc(N(c2cccnc2)C2CCN(c3ncccn3)CC2)cc1 | 23 | 53900 | 3.5 | 4.4 | > 100 | 1.6 (≈ 4.01 µM) | 8.8 | 196 | 17 |  |  |  |  |  |  |  |  | 
6 | Cc1ccc(N2CCC(N(c3ccc(C(F)(F)F)cc3)c3cccnc3)CC2)cn1 | 340 | > 100000 |  |  |  |  |  |  | 151 |  |  |  |  |  |  |  |  | 
7 | Cc1cncc(N2CCC(N(c3ccc(C(F)(F)F)cc3)c3cccnc3)CC2)c1 | 27 |  |  |  |  |  |  |  | 9 |  |  |  |  |  |  |  |  | 
8 | N#Cc1ccc(N(c2cccnc2)C2CCN(c3ccc(F)c(F)c3)CC2)cc1 | 3 | > 100000 | 4.2 | 4.4 | 6.3 (≈ 16.1 µM) | < 1.6 | 23.5 | 73.7 | 1.8 |  |  | 4300 | 0.8 |  |  |  |  | 
9 | CC(C)(O)CN1CCC(N(c2ccc(C(F)(F)F)cc2)c2cccnc2)CC1 | 30 |  |  |  |  |  |  |  | 11 |  |  |  |  |  |  |  |  | 
10 | CN(C)S(=O)(=O)c1ccccc1N1CCC(N(c2ccc(C#N)cc2)c2cccnc2)CC1 | 28 |  |  |  |  |  |  |  | 10 |  |  |  |  |  |  |  |  | 
11 | CN(C)S(=O)(=O)c1cccc(N2CCC(N(c3ccc(C(F)(F)F)cc3)c3cccnc3)CC2)c1 | 31 | 10400 | 4.4 | 4.7 | 25 (≈ 49.5 µM) | < 1.6 | 6.7 | 258 | 15 |  |  | 7000 | 0.94 |  |  |  |  | 
12 | CN(C)S(=O)(=O)c1cccc(N2CCC(N(c3ccc(C#N)cc3)c3cccnc3)CC2)c1 | 11 |  | 3.6 | 3.7 | 50 (≈ 108 µM) | < 1.6 | 3.4 | 504 | 6 |  |  | 6000 | 0.97 |  |  |  |  | 
13 | CCC(C(C)=O)N1CCC(N(c2ccc(C(F)(F)F)cc2)c2cccnc2)CC1 (stereo not given) | 20 | 25000 |  |  | > 100 | 12.5 (≈ 30.8 µM) |  |  | 8 |  |  | 10000 |  | 1.6 | 4.6 | 11.1 | 0.9 | 156
14 | CC(C)(C)OC(=O)N1CCC(N(c2ccc(Cl)cc2)c2cccnc2)CC1 | 3.26 | 52800 |  |  |  |  |  |  | 1.03 |  |  |  |  |  |  |  |  | 
15 | CC(C)(C)OC(=O)N1CCC(N(c2ccc(C(F)(F)F)cc2)c2cccnc2)CC1 | 9.9 | 22200 |  |  |  |  |  |  | 5.12 |  |  |  |  |  |  |  |  | 
16 | CN(C)S(=O)(=O)c1cc(C(F)(F)F)ccc1N1CCC(N(c2ccc(C#N)cc2)c2cccnc2)CC1 | 11 | > 100000 |  |  |  |  |  |  | 6 |  |  |  |  |  |  |  |  | 
17 | CC(=O)C(C)N1CCC(N(c2ccc(C(F)(F)F)cc2)c2cccnc2)CC1 (stereo not given) | 31 | 69000 |  |  | > 100 | 6.3 (≈ 16.1 µM) |  |  | 15 |  |  | 5000 |  | 1.3 | 4.2 | 21.5 | 0.82 | 80.7
18 | N#Cc1cc(C(F)(F)F)ccc1N1CCC(N(c2ccc(C(F)(F)F)cc2)c2cccnc2)CC1 | 11 | 24300 | 5.2 | > 5.3 | 12.5 (≈ 25.5 µM) | < 1.6 | 32.8 | 52.9 | 7 |  |  | > 20000 | 0.75 |  |  |  |  | 
19 | CC(C)(O)CN1CCC(N(c2ccc(C#N)cc2)c2cccnc2)CC1 | 71 | > 100000 |  |  | > 100 | > 100 |  |  | 27 |  |  |  |  | 0.7 | 2.2 | 142 |  | 12.2
20 | N#Cc1ccc(N(c2cccnc2)C2CCN(c3ccc(C(F)(F)F)cc3C#N)CC2)cc1 | 4 | > 100000 |  |  |  |  |  |  | 2 |  |  |  |  |  |  |  |  | 
21 | FC(F)(F)c1ccc(N2CCC(N(c3ccc(C(F)(F)F)cc3)c3cncnc3)CC2)cc1 | 11 | 76500 | > 5.3 | 5.2 | < 1.6 | 3.1 (≈ 6.65 µM) | 25.7 | 67.5 | 7 |  |  |  |  |  |  |  |  | 
